The source made the active and inactive calls. No rule for the calls is given here.
Molecular target: Toxin B (TcdB) glycohydrolase, Clostridioides difficile 630
Assay: TcdB glycohydrolase inhibitors, dose response, biochemical, cherry-pick, plate reader (AID 720512)
Settings: recombinant TcdB glycohydrolase activity

| SMILES | activity change, negative = inhibition (at 19.5 µM (top of the series)) | further results |
| --- | --- | --- |
| Cc1c(CNC(=O)c2c([N+](=O)[O-])cnn2C)cnn1C | inactive |  |
| CC(C(=O)OCC(=O)c1c(N)n(C)c(=O)n(C)c1=O)N1C(=O)c2ccccc2C1=O (stereo unspecified) | inactive |  |
| COc1cc(/C=C/C(=O)OCC(=O)N(C)Cc2ccccc2)ccc1O | inactive |  |
| CC(=O)Nc1ccc(S(=O)(=O)Nc2nc3ccccc3nc2-n2ccc(=NC(=O)c3ccc(F)cc3)cc2)cc1 | inactive |  |
| Cc1ccc(NNC(=O)c2ccno2)cc1C | inactive |  |
| Nc1c(Cl)ncnc1NCCc1ccc(O)cc1 | inactive |  |
| COC(=O)c1ccc(C23CC4(C2)[C@H](CN(Cc2ccc(C(F)(F)F)cc2)[C@@H]4c2ccccc2)C3c2ccc(Cl)nc2)cc1 (stereo partly specified) | inactive |  |
| COc1ccc(NC(=O)Nc2nc(C)cc(C)n2)c(OC)c1 | inactive |  |
| O=C(C[C@@H]1C[C@H]2c3cc(NC(=O)c4ccc5c(c4)OCO5)ccc3O[C@H]2[C@H](CO)O1)NCc1cccc(F)c1 | inactive |  |
| C/C(=N\Nc1ccc([N+](=O)[O-])cc1)c1cccc(N)c1 | inactive |  |
| OCC[C@H]1C[C@H](O)[C@@H](O)[C@@]2(Cc3ccccc3CO2)O1 | inactive |  |
| Fc1ccc(/C=C\c2nccc3c2[nH]c2ccccc23)cc1 | inactive |  |
| COC(=O)c1sc2nc(SCc3ccccc3C)n(N)c(=O)c2c1C | inactive |  |
| C[C@H](CO)N1C[C@H](C)[C@@H](CN(C)C(=O)Nc2ccc(C(F)(F)F)cc2)Oc2c(NS(=O)(=O)c3cccs3)cccc2C1=O |  | AC50: > 39 µM (inactive) |
| CC(=O)Nc1ccc(N(C(=O)c2ccco2)C(C(=O)NC2CCCC2)c2cccs2)cc1 (stereo unspecified) | inactive |  |
| CC(=O)Nc1cccc2cc(O)ccc12 |  | AC50: > 39 µM (inactive) |
| O=C(NCc1nnc2c(C(F)(F)F)cc(Cl)cn12)c1cccnc1 | inactive |  |
| COc1ccc(NS(=O)(=O)c2cc(N=Nc3c(O)[nH]c(=O)[nH]c3=O)ccc2Cl)cc1 | inactive |  |
| CC(=O)N/C(=C\c1ccccc1)C(=O)Nc1ccc(O)cc1 |  | AC50: > 39 µM (inactive) |
| COc1ccc(C2(CNC(=O)c3ccc(OC)c([N+](=O)[O-])c3)CCCCC2)cc1OC |  | AC50: > 39 µM (inactive) |
| O=C(c1ccc(N2CCOCC2)c([N+](=O)[O-])c1)N1CCN(c2ccccc2F)CC1 | inactive |  |
| COc1ccc(NC(=O)Cn2cnc3sc(C)c(S(=O)(=O)N4CCOCC4)c3c2=O)c(OC)c1 | inactive |  |
| CCOc1cc(/C=N/n2cnnc2)ccc1O |  | AC50: > 39 µM (inactive) |

| SMILES | activity change, negative = inhibition (at 19.5 µM (top of the series)) | further results |
| --- | --- | --- |
| COc1cc(/C=N/NC2=NCCCCC2)ccc1O | inactive |  |
| COCC(=O)N1CC[C@@H]2[C@H]1c1cc(-c3ccc(OC)cc3)ccc1N(C)[C@H]2CO |  | AC50: > 39 µM (inactive) |
| CCCCn1c(-c2ccccc2C)nc2cc3[nH]c(=O)c(C(C)C)nc3cc21 | inactive |  |
| COc1cc(/C=C2\SC(=S)N(NC(=O)c3cccc(O)c3)C2=O)ccc1O | inactive |  |
| CCCS(=O)(=O)NC(=O)C1(C)CCN(C(=O)c2ccco2)C1 (stereo unspecified) | inactive |  |
| COc1cccc(Oc2ccc3nnc(C(F)(F)F)n3n2)c1 | inactive |  |
| Cn1c(=O)c2c([nH]c(=S)n2Cc2ccc(Cl)cc2)n(C)c1=O | inactive |  |
| CCC(=O)c1cn(CC(=O)Nc2cccc(C)c2C)c2ccccc12 | inactive |  |
| Cc1ccc(S(=O)(=O)N2CCCC2C(=O)Nc2ccc(O)cc2)cc1 (stereo unspecified) | inactive |  |
| O=C(NC(=S)NNC(=O)c1ccccc1F)c1cccnc1 | inactive |  |
| CNC(=O)C[C@H]1CC[C@@H]2[C@@H](COc3ccc(NC(=O)c4cccc(OC)c4)cc3C(=O)N2C)O1 | inactive |  |
| Cn1c(SCc2nnc(-c3ccccc3)o2)nc2ccccc21 | inactive |  |
| CCOC(=O)c1cc([N+](=O)[O-])sc1N | inactive |  |
| CCn1c(C)nc2cc(C(=O)N/N=C/c3ccc(OC)c(O)c3)ccc21 |  | AC50: > 39 µM (inactive) |
| O=C(CC(c1ccccc1)c1ccccc1)Nc1ccc(O)cc1 | inactive |  |
| COc1ccc(/C=C(/C#N)C(=O)Nc2ccc(O)cc2)cc1C(=O)O |  | AC50: > 39 µM (inactive) |
| COc1ccc(Cl)cc1NC(=O)Cn1c(NCCO)nc2ccccc21 | inactive |  |
| CC(=O)Nc1cccc(NC(=O)c2ccc(Br)cc2)c1 | inactive |  |
| O=S(=O)(NC1CCCCCCC1)c1ccc(F)cc1 | inactive |  |
| COc1ccc(OCc2cc(-c3ccc(Cl)cc3)no2)cc1 | inactive |  |
| Cn1c(-c2ccc(F)c(F)c2)cc2onc(-c3ccccc3)c2c1=O | inactive |  |
| COc1ccc2[nH]c3c(=O)n(CCCCC(=O)NCCN4CCCC4)c(=S)[nH]c3c2c1 |  | activity change, negative = inhibition (at 10 µM (top of the series)): inactive |
| COC(=O)C[C@H]1CC[C@@H]2[C@@H](COc3ccc(NC(=O)c4cccc(OC)c4)cc3C(=O)N2C)O1 | inactive |  |

| SMILES | activity change, negative = inhibition (at 19.5 µM (top of the series)) | further results |
| --- | --- | --- |
| O=C(Nc1ccncc1)c1ccc(-c2ccccc2)cc1 | inactive |  |
| CC(C)(C)C(=O)C1=C(O)C(=O)N(c2ccccc2)C1c1ccccc1 (stereo unspecified) | inactive |  |
| Cc1cnc(C(=O)OCC(=O)Nc2ccc(OCc3ccccc3)cc2)cn1 | inactive |  |
| O=c1[nH]c(CSc2nnc(Cc3ccccc3)o2)nc2ccccc12 | inactive |  |
| COc1ccccc1CNC(=O)CN(c1ccc(C)cc1)S(=O)(=O)c1c(C)n[nH]c1C | inactive |  |
| CSc1ccccc1NC(=O)C1=CC(c2ccc(C)cc2)=NS(=O)(=O)N1C | inactive |  |
| COc1ccc(CNC(=O)C2CCN(S(=O)(=O)c3c(C)noc3/C=C/N(C)C)CC2)cc1 | inactive |  |
| CCOc1cc(/C=N/O)ccc1OCc1ccc(C)cc1 | inactive |  |
| COc1ccc(NC(=O)CSc2nccn2C)cc1S(N)(=O)=O | inactive |  |
| COc1cc2oc3ccc(C#Cc4ccccn4)cc3c(=O)c2cc1OC | inactive |  |
| CC(C)(C)OCC(O)CN1CCN(C(=O)c2ccccc2)CC1 (stereo unspecified) | inactive |  |
| Oc1ccccc1-c1cnc2cccnn12 | inactive |  |
| CCOC(=O)/C(=N/Nc1ccc(Br)cc1)N1CC(C)OC(C)C1 (stereo unspecified) |  | AC50: 6.61 µM |
| Cc1ccc(N/N=C/c2c(O)n(-c3ccccc3)c(=O)[nH]c2=O)cc1 |  | AC50: 8.13 µM |
| CN1C(=O)NC(c2ccc(O)cc2)C2=C1CN(c1ccc(O)cc1)C2=O (stereo unspecified) | inactive |  |
| O=C(C[C@@H]1CC[C@@H]2[C@H](COC[C@@H](O)CN2C(=O)c2ccccn2)O1)NC1CCC1 | inactive |  |
| O=C(Nc1ccc(O)cc1)/C(=C/c1ccco1)NC(=O)c1ccccc1 | inactive |  |
| Cc1ccccc1NS(=O)(=O)c1ccc(OCC(=O)N2CCCCC2)cc1 | inactive |  |
| COc1cccc2cc(/C(C)=N/NC(=O)c3ccco3)oc12 | inactive |  |
| O=C(NCc1ccccc1)C1Cc2c(-c3cccc(F)c3)ccnc2O1 (stereo unspecified) | inactive |  |
| CC(C)Cc1cc(C(=O)N2CCCC(CO)(Cc3ccc(F)cc3)C2)no1 (stereo unspecified) | inactive |  |
| Cc1scc(C(=O)N2CCN(c3ccc(Cl)cc3)CC2)c1C | inactive |  |
| Cc1ccc(C2=NS(=O)(=O)N(C)C(C(=O)NCc3ccc(F)cc3)=C2)cc1 | inactive |  |

| SMILES | activity change, negative = inhibition (at 19.5 µM (top of the series)) | further results |
| --- | --- | --- |
| Cc1ccc(Oc2c(CO)c(-c3ccccc3)nn2C)cc1 | inactive |  |
| O=C(CNS(=O)(=O)c1ccccc1)N/N=C/c1ccc(O)cc1 | inactive |  |
| C=C1CCN(Cc2ccccc2)S(=O)(=O)c2ccccc21 | inactive |  |
| Cn1cc(S(=O)(=O)CC(=O)N2CCCc3ccccc32)c2ccccc21 | inactive |  |
| C/C(=N\Nc1cc(N2CCOCC2)ncn1)c1ccc(O)cc1 |  | AC50: > 39 µM (inactive) |
| O=[N+]([O-])c1cc(Br)ccc1NS(=O)(=O)c1ccccc1 | inactive |  |
| O=C(COc1cccc(C(F)(F)F)c1)N1CCN(c2ccc(O)cc2)CC1 |  | activity change, negative = inhibition (at 10 µM (top of the series)): inactive |
| Cc1c(C(=O)c2ccccc2)c2ccccn2c1CCc1ccccn1 | inactive |  |
| COc1ccc(Cl)cc1NC(=S)NC1CCCC1 | inactive |  |
| CCOc1ccccc1/C=C/c1onc(C)c1S(=O)(=O)N1CCC(C(=O)NC(C)(C)C)CC1 | inactive |  |
| C[C@@H]1C=C[C@](Cc2ccccc2)(C(=O)NCC2CC2)N1C(=O)c1ccccc1 | inactive |  |
| O=C(O)c1cc(NS(=O)(=O)c2ccc(NC3CCCCC3)c([N+](=O)[O-])c2)cc(C(=O)O)c1 | inactive |  |
| O=c1[nH]nc(-c2cc(-c3ccccc3)nc3ccccc23)o1 | inactive |  |
| Nc1ccc2c(c1)[nH]c(=O)c1cc(N)ccc12 | inactive |  |
| O=C(NCc1ccccc1)[C@@H]1CCCN1C(=O)[C@@H]1CCCN1C(=O)c1cccs1 | inactive |  |
| COc1cc(C=NNC(=O)c2ccccc2-n2cccc2)ccc1O | inactive |  |
| COc1ccc(C2=NS(=O)(=O)N(C)C(C(=O)NC(C)c3ccccc3)=C2)cc1OC (stereo unspecified) | inactive |  |
| Cc1ccc(C(=O)Nc2ccc(N3CCCCC3)cc2)cc1 | inactive |  |
| COCC(=O)N1CC[C@@H]2[C@@H](CO)N(C)c3ccc(-c4ccccc4)cc3[C@@H]21 | inactive |  |
| S=c1[nH]nc(-c2ccccn2)n1/N=C/c1ccc(Cl)cc1 | inactive |  |
| CCCCc1[nH]c(=O)c(C#N)c2c1CCCC2 | inactive |  |
| Cc1[nH]c(=O)c(C#N)c2c1CCCC2 | inactive |  |

From PubChem BioAssay AID720512 (Broad Institute, 2013)
